Calls of active or inactive are those of the source.
Experiments:
[1] = biological target: S-adenosylmethionine synthase isoform type-2 (Homo sapiens, UniProt P31153)
[2] = biological target: Serine/threonine-protein kinase SIK2 (Homo sapiens, UniProt Q9H0K1)
[3] = biological target: Non-receptor tyrosine-protein kinase TYK2 (Homo sapiens, UniProt P29597)
[4] = biological target: ATP-dependent RNA helicase DDX3X (Homo sapiens, UniProt O00571)
[5] = biological target: Myosin light chain kinase, smooth muscle (Homo sapiens, UniProt Q15746)
[6] = biological target: T1, Structural maintenance of chromosomes protein 1A (Homo sapiens, UniProt Q14683)
T1 sequence (Q14683 whole entry): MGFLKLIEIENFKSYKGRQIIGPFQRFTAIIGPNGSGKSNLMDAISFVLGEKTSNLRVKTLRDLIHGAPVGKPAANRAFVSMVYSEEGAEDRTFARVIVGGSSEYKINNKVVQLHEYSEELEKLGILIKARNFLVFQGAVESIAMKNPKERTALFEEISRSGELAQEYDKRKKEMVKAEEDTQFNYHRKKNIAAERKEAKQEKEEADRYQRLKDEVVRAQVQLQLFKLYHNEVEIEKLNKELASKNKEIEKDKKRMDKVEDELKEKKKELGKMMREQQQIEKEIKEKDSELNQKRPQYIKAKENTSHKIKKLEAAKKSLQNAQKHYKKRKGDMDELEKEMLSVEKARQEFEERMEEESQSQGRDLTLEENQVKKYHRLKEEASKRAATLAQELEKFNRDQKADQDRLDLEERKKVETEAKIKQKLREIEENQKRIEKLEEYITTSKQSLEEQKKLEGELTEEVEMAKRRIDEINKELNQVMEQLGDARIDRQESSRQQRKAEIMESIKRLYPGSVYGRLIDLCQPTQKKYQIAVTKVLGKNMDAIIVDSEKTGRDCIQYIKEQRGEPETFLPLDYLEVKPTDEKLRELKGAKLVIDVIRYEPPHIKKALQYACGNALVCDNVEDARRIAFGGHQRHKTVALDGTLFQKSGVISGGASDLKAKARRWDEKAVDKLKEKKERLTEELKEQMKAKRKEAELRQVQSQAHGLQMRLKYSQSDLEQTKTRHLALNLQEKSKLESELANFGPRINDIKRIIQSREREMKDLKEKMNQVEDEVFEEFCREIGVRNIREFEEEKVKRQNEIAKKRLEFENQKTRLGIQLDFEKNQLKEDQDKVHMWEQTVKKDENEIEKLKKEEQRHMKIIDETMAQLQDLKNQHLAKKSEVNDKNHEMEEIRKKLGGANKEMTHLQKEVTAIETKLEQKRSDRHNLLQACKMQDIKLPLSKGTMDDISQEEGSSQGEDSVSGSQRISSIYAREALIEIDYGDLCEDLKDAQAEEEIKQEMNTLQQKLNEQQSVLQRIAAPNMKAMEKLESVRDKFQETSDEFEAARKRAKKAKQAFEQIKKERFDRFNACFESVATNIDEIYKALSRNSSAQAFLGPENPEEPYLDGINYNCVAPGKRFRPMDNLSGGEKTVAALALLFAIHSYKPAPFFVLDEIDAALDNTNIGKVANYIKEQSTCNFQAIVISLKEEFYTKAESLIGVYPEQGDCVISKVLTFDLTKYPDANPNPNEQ

[7] = biological target: Casein kinase I isoform delta (Homo sapiens, UniProt P48730)
[8] = biological target: Interleukin-1 receptor-associated kinase 1 (Homo sapiens, UniProt P51617)
[9] = biological target: Ras-related protein Rab-6A (Homo sapiens, UniProt P20340)
[10] = biological target: T2, ATP-dependent 6-phosphofructokinase, platelet type (Homo sapiens, UniProt Q01813)
T2 sequence (Q01813 whole entry): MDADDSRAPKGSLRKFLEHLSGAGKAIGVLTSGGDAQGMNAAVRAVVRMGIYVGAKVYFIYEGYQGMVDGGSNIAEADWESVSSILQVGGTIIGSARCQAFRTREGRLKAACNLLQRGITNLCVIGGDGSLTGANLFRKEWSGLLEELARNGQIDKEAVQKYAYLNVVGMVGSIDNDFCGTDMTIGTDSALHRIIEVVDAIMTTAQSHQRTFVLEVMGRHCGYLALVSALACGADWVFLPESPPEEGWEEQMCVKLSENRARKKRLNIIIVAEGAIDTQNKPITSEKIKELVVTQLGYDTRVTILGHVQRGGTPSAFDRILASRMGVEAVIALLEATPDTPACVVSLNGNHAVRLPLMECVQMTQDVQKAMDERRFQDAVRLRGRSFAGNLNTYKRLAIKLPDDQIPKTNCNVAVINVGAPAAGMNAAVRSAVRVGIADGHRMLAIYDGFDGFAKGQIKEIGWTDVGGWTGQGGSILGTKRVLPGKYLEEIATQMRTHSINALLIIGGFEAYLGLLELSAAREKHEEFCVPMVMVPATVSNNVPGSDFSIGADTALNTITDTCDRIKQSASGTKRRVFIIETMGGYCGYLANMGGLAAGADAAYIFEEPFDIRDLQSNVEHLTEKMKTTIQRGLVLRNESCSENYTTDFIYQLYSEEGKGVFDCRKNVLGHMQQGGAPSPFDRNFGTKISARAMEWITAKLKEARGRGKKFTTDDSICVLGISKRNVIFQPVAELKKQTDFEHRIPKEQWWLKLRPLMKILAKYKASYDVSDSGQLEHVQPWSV

[11] = biological target: Glycogen synthase kinase-3 beta (Homo sapiens, UniProt P49841)
[12] = biological target: Mitogen-activated protein kinase 9 (Homo sapiens, UniProt P45984)
[13] = biological target: Inosine-5'-monophosphate dehydrogenase 2 (Homo sapiens, UniProt P12268)
Note: in the data inactive means no Kd found up to 30 µM.

Mitogen-activated protein kinase 9, sequence (P45984 whole entry): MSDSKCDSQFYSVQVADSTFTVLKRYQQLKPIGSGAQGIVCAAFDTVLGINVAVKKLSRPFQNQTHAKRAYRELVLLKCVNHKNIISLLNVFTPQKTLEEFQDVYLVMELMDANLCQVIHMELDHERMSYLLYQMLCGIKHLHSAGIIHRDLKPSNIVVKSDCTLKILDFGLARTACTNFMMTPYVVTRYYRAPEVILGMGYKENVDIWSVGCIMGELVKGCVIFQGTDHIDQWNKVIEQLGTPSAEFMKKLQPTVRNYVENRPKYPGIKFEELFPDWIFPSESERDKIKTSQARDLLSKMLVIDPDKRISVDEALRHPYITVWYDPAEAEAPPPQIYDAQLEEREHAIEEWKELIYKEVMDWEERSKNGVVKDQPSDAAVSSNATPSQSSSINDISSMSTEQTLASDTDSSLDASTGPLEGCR
S-adenosylmethionine synthase isoform type-2, sequence (P31153 whole entry, canonical isoform): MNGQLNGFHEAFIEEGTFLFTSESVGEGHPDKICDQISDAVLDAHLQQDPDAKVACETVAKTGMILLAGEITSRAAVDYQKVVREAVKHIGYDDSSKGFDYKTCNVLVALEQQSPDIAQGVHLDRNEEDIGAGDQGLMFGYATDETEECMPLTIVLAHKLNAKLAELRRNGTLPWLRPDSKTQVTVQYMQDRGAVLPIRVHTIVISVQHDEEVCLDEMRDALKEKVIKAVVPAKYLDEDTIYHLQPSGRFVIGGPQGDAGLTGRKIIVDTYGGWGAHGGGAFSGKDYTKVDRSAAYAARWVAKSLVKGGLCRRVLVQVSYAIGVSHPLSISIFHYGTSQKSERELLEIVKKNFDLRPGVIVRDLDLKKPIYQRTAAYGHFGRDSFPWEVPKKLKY
Serine/threonine-protein kinase SIK2, sequence (Q9H0K1 whole entry): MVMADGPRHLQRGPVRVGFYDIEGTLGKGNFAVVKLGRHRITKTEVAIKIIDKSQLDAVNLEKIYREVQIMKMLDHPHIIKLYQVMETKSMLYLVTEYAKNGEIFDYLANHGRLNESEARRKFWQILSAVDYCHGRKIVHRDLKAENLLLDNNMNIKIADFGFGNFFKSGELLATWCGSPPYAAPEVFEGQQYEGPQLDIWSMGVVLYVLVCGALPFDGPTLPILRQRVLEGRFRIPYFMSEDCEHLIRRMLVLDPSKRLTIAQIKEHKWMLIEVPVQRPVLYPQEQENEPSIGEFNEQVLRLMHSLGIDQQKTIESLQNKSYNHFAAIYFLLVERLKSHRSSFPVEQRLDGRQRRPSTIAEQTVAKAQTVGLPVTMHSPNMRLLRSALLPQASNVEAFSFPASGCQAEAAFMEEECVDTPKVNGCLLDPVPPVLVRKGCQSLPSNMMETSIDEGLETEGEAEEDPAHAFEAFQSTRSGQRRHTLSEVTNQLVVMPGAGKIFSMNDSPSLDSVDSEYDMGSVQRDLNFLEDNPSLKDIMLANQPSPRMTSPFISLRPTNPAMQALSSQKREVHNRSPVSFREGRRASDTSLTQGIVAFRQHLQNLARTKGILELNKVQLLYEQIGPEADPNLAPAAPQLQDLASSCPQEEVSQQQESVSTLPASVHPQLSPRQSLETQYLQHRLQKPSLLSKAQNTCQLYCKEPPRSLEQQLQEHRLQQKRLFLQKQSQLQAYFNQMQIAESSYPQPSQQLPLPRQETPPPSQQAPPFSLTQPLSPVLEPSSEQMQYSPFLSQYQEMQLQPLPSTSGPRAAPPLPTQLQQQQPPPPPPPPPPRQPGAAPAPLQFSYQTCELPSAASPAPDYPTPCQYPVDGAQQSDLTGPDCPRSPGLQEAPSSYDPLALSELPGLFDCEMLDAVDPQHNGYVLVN
Casein kinase I isoform delta, sequence (P48730 whole entry, canonical isoform): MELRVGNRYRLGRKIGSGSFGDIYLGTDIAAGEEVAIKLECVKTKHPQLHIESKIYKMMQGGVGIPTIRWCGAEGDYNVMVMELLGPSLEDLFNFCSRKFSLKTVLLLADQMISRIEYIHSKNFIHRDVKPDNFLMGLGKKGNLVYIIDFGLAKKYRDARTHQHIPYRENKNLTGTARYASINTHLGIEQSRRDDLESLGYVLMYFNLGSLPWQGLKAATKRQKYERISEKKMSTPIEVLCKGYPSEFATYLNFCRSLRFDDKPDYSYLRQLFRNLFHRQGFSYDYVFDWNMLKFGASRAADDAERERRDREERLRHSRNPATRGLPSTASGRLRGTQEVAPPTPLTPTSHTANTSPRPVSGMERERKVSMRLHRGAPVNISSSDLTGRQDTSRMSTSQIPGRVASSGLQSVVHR
Interleukin-1 receptor-associated kinase 1, sequence (P51617 whole entry): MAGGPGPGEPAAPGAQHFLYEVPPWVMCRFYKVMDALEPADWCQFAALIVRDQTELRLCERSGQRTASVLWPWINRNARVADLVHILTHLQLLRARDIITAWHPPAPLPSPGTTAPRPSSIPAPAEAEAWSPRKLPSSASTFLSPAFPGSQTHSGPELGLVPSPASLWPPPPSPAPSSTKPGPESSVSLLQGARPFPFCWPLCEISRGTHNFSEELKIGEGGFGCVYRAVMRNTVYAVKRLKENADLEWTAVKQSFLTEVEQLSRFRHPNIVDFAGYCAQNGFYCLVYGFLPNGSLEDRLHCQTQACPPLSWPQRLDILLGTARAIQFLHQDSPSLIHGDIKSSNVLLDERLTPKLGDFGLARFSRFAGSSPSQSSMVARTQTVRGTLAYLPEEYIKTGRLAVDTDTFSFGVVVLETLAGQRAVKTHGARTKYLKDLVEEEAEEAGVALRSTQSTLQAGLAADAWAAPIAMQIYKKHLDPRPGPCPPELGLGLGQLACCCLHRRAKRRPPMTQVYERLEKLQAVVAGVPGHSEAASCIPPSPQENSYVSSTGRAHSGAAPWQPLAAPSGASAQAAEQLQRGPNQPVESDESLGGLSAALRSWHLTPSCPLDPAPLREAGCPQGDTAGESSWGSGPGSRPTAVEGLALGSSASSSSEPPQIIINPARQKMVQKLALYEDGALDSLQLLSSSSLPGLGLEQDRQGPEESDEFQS
Glycogen synthase kinase-3 beta, sequence (P49841 whole entry): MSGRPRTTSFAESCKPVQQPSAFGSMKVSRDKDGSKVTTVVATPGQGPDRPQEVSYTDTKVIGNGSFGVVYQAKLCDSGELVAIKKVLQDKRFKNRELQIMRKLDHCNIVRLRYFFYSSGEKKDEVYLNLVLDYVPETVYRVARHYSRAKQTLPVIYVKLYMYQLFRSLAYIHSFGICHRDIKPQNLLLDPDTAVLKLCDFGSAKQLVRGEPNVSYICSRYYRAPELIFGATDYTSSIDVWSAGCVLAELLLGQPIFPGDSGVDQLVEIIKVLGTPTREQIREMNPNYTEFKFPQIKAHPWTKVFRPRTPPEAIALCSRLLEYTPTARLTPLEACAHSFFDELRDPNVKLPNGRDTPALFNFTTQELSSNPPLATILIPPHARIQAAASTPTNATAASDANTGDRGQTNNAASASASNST
Non-receptor tyrosine-protein kinase TYK2, sequence (P29597 whole entry): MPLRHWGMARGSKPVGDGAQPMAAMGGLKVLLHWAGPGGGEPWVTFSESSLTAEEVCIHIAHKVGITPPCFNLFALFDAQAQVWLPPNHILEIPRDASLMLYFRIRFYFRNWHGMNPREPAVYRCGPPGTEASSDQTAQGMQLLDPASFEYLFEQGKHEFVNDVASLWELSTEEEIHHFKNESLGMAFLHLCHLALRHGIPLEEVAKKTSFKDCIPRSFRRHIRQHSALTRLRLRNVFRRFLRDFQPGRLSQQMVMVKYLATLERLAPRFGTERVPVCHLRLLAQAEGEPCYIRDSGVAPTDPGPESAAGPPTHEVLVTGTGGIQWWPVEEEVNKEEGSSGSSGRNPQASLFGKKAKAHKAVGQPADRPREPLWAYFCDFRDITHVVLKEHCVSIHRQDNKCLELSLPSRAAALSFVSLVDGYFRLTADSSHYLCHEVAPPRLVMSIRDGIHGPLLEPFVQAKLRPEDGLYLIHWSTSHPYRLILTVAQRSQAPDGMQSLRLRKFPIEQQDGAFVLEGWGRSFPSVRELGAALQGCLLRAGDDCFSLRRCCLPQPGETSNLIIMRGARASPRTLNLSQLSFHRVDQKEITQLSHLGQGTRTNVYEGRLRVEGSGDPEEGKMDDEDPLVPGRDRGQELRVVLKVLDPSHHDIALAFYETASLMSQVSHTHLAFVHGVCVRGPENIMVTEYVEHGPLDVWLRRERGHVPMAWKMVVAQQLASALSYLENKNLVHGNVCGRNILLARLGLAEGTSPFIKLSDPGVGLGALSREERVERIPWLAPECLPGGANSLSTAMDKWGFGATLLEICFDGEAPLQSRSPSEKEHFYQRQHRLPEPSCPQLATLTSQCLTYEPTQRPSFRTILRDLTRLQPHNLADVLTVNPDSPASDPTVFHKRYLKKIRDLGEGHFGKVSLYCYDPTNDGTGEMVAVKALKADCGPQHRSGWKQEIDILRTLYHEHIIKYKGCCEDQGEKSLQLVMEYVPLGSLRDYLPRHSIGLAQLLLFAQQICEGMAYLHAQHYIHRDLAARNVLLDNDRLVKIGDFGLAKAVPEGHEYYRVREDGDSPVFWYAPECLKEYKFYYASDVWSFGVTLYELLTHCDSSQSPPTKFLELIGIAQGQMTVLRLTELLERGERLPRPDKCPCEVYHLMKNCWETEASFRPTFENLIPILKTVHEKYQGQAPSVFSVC
Ras-related protein Rab-6A, sequence (P20340 whole entry): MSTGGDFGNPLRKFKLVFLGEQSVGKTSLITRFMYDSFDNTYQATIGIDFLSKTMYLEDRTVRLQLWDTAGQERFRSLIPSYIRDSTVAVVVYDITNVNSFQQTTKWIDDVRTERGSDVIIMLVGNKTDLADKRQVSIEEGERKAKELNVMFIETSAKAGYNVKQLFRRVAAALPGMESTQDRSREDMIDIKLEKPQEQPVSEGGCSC

| Kd [1] | Kd [2] | Kd [3] | Kd [4] | Kd [5] | Kd [6] | Kd [7] | Kd [8] | Kd [9] | Kd [10] | Kd [11] | Kd [12] | Kd [13] | SMILES |
| --- | --- | --- | --- | --- | --- | --- | --- | --- | --- | --- | --- | --- | --- |
| > 30 µM (inactive) | > 30 µM (inactive) | > 30 µM (inactive) | > 30 µM (inactive) | > 30 µM (inactive) | > 30 µM (inactive) | > 30 µM (inactive) | > 30 µM (inactive) | > 30 µM (inactive) | > 30 µM (inactive) | > 30 µM (inactive) | > 30 µM (inactive) | – | C[C@@H](Nc1cc(F)cc(F)c1)c1cc(C(=O)N(C)C)cc2c(=O)cc(N3CCOCC3)oc12 [AZD-8186] |
| > 30 µM (inactive) | > 30 µM (inactive) | > 30 µM (inactive) | > 30 µM (inactive) | > 30 µM (inactive) | > 30 µM (inactive) | > 30 µM (inactive) | > 30 µM (inactive) | – | > 30 µM (inactive) | > 30 µM (inactive) | > 30 µM (inactive) | > 30 µM (inactive) | CN1N=C(N)c2cn([C@@H]3O[C@H](COP(=O)(O)O)[C@@H](O)[C@H]3O)c3ncnc1c23 [TRICIRIBINE PHOSPHATE] |
| > 30 µM (inactive) | > 30 µM (inactive) | > 30 µM (inactive) | > 30 µM (inactive) | > 30 µM (inactive) | > 30 µM (inactive) | – | – | > 30 µM (inactive) | > 30 µM (inactive) | > 30 µM (inactive) | > 30 µM (inactive) | > 30 µM (inactive) | COc1cc2nccc(Oc3ccc(NC(=O)NC4CC4)c(Cl)c3)c2cc1C(N)=O [LENVATINIB] |
| > 30 µM (inactive) | > 30 µM (inactive) | > 30 µM (inactive) | > 30 µM (inactive) | > 30 µM (inactive) | > 30 µM (inactive) | > 30 µM (inactive) | > 30 µM (inactive) | > 30 µM (inactive) | > 30 µM (inactive) | > 30 µM (inactive) | > 30 µM (inactive) | – | Cc1cc2c(F)c(Oc3ncnn4cc(OC[C@@H](C)OC(=O)[C@H](C)N)c(C)c34)ccc2[nH]1 [BRIVANIB ALANINATE] |
| – | > 30 µM (inactive) | > 30 µM (inactive) | > 30 µM (inactive) | > 30 µM (inactive) | > 30 µM (inactive) | > 30 µM (inactive) | > 30 µM (inactive) | > 30 µM (inactive) | > 30 µM (inactive) | > 30 µM (inactive) | > 30 µM (inactive) | > 30 µM (inactive) | Cc1c(F)cc(C(=O)NC2CC2)cc1-c1ccc(C(=O)NCC(C)(C)C)cn1 [LOSMAPIMOD] |
| > 30 µM (inactive) | 0.123 µM (active) | > 30 µM (inactive) | > 30 µM (inactive) | > 30 µM (inactive) | – | > 30 µM (inactive) | > 30 µM (inactive) | > 30 µM (inactive) | > 30 µM (inactive) | > 30 µM (inactive) | > 30 µM (inactive) | – | COc1cc(N2CCC(N3CCN(C)CC3)CC2)ccc1Nc1ncnc(Nc2ccccc2S(=O)(=O)C(C)C)n1 [ASP-3026] |
| > 30 µM (inactive) | > 30 µM (inactive) | > 30 µM (inactive) | > 30 µM (inactive) | > 30 µM (inactive) | > 30 µM (inactive) | 21.5 µM (active) | > 30 µM (inactive) | > 30 µM (inactive) | > 30 µM (inactive) | > 30 µM (inactive) | > 30 µM (inactive) | – | O=C1NC(=O)/C(=C/c2ccc3nccc(-c4ccncc4)c3c2)S1 [GSK-1059615] |
| > 30 µM (inactive) | 2.49 µM (active) | > 30 µM (inactive) | > 30 µM (inactive) | > 30 µM (inactive) | > 30 µM (inactive) | > 30 µM (inactive) | > 30 µM (inactive) | > 30 µM (inactive) | > 30 µM (inactive) | > 30 µM (inactive) | > 30 µM (inactive) | – | CN(C)C(=O)c1cc2cnc(Nc3ccc(N4CCNCC4)cn3)nc2n1C1CCCC1 [RIBOCICLIB] |
| – | > 30 µM (inactive) | > 30 µM (inactive) | > 30 µM (inactive) | > 30 µM (inactive) | > 30 µM (inactive) | > 30 µM (inactive) | > 30 µM (inactive) | > 30 µM (inactive) | > 30 µM (inactive) | > 30 µM (inactive) | > 30 µM (inactive) | – | Cn1cc(-c2ccc3nnc(C(F)(F)c4ccc5ncccc5c4)n3n2)cn1 [JNJ-38877605] |
| > 30 µM (inactive) | > 30 µM (inactive) | > 30 µM (inactive) | > 30 µM (inactive) | > 30 µM (inactive) | > 30 µM (inactive) | > 30 µM (inactive) | > 30 µM (inactive) | > 30 µM (inactive) | > 30 µM (inactive) | > 30 µM (inactive) | > 30 µM (inactive) | – | C[C@@H]1CN(Cc2ccc(F)cc2)[C@@H](C)CN1C(=O)c1cc2c(C(=O)C(=O)N(C)C)cn(C)c2cc1Cl [TALMAPIMOD] |
| – | > 30 µM (inactive) | > 30 µM (inactive) | > 30 µM (inactive) | > 30 µM (inactive) | > 30 µM (inactive) | > 30 µM (inactive) | > 30 µM (inactive) | > 30 µM (inactive) | > 30 µM (inactive) | > 30 µM (inactive) | > 30 µM (inactive) | > 30 µM (inactive) | COc1cc(CCc2cc(NC(=O)c3ccc(N4C[C@@H](C)N[C@@H](C)C4)cc3)n[nH]2)cc(OC)c1 [AZD-4547] |

| SMILES | Kd [1] | Kd [2] | Kd [3] | Kd [4] | Kd [5] | Kd [6] | Kd [7] | Kd [8] | Kd [9] | Kd [10] | Kd [11] | Kd [12] | Kd [13] |
| --- | --- | --- | --- | --- | --- | --- | --- | --- | --- | --- | --- | --- | --- |
| C=CC(=O)N1CCC(Oc2cc3c(Nc4ccc(Cl)c(Cl)c4F)ncnc3cc2OC)CC1 [POZIOTINIB] | > 30 µM (inactive) | > 30 µM (inactive) | > 30 µM (inactive) | > 30 µM (inactive) | > 30 µM (inactive) | > 30 µM (inactive) | > 30 µM (inactive) | > 30 µM (inactive) | > 30 µM (inactive) | > 30 µM (inactive) | > 30 µM (inactive) | > 30 µM (inactive) | – |
| COC(=O)[C@@]1(O)C[C@H]2O[C@]1(C)n1c3ccccc3c3c4c(c5c6ccccc6n2c5c31)C(=O)NC4 [K-252A] | > 30 µM (inactive) | 0.058 µM (active) | > 30 µM (inactive) | > 30 µM (inactive) | – | > 30 µM (inactive) | > 30 µM (inactive) | > 30 µM (inactive) | > 30 µM (inactive) | > 30 µM (inactive) | > 30 µM (inactive) | 0.986 µM (active) | > 30 µM (inactive) |

Reference: ChEMBL document CHEMBL3991601, “The target landscape of clinical kinase drugs” (Science, 2017)
